Data: ChEMBL document CHEMBL1201862, “PubChem BioAssay data set” (2004)
Calls of active or inactive are those of the source. Rule as the data show it, for most assays here: actives have a measured EC50 and inactives only a lower limit.

How the values were obtained:
[1] = cells; assay type: functional
[2] = test system: BJ; assay: cytotoxicity toward BJ-TERT fibroblasts, dose response, cell-based, RAS-independent, luminescence (AID 1933); assay type: functional; conditions: Homo sapiens
[3] = test system: BJ; assay: cells; assay type: functional, cell-based; conditions: Homo sapiens
[4] = test system: BJ; assay: cytotoxicity toward BJ-TERT-LT-ST fibroblasts, dose response, cell-based, RAS-independent, luminescence (AID 1935); assay type: functional; conditions: Homo sapiens;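 also: BJ fibroblasts immortalized with TERT plus LT and ST oncogenes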
[5] = cytotoxicity toward DRD oncogenic fibroblasts, dose response, cell-based, non-viral oncogenic, luminescence (AID 1934); assay type: functional; conditions: Homo sapiens
[6] = Luminescence Cell-Based Dose Retest to Confirm Inhibitors of Cancer Stem Cells. [Related pubchem assays (depositor defined):AID2717, AID2721]; assay type: functional; conditions: Homo sapiens
[7] = NIH-3T3 fibroblast cytotoxicity, dose response, cytotoxicity control, cell-based, fluorescence, Alamar Blue, secondary assay (AID 2327); assay type: functional;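 also: NIH-3T3 mouse fibroblasts cultured with fluconazole at 8 µg/mL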
[8] = C. albicans growth with fluconazole, confirmation, fluorescence, retest (AID 2467); assay type: functional, cell-based
[9] = Luminescence Cell-Based Dose Confirmation HTS to Identify Activators of 5'UTR Stem-Loop Driven Alpha-Synuclein mRNA Translation in H4 Neuroglioblastoma Cells. [Related pubchem assays: 1829 (Project Summary), 1814 (Primary HTS)]; assay type: functional
[10] = Luminescence Cell-Based Dose Response HTS to Identify Activators of Luciferase Translation or Activity in H4 […] Cells. [Related pubchem assays: 1829 (Project Summary), 1814 (Primary HTS)]; assay type: functional
[11] = test system: H4; assay: Luminescence Cell-Based Dose Response HTS to Identify Activators of 5'UTR Stem-Loop Driven Prion Protein mRNA Translation in H4 Neuroglioblastoma Cells. [Related pubchem assays: 1829 (Project Summary), 1814 (Primary HTS)]; assay type: functional; conditions: Homo sapiens
[12] = growth suppression of PTEN-null colon cells, dose response, cell-based, HCT116 PTEN knockout (AID 1047); assay type: functional;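 also: HCT116 colon tumor cells with PTEN knocked out; cells exposed to compound for 60 hours before readout; potency for loss of cell viability measured by luminescence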
[13] = target: Paired box protein Pax-8 (Homo sapiens, UniProt Q06710); assay: inhibitors of PAX8-driven TPO luciferase reporter, dose response, RMG-I cells, cherry-pick (AID 687027); assay type: functional, cell-based;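 also: luciferase reporter driven by Pax8 target thyroperoxidase promoter measured by SteadyGlo luminescence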
Sequence of Paired box protein Pax-8 (Q06710 whole entry): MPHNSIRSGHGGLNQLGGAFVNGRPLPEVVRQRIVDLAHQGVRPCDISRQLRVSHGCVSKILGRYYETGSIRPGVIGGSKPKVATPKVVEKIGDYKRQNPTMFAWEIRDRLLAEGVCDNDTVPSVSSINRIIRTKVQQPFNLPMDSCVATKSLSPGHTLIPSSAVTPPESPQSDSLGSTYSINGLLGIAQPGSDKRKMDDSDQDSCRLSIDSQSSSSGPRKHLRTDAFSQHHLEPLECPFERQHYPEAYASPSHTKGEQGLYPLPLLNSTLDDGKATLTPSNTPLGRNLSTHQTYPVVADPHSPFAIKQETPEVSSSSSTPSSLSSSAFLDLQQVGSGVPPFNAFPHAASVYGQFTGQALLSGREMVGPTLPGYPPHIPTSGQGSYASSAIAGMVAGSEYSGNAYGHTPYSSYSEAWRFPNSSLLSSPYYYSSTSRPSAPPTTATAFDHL

[14] = HEp-2 cell cytotoxicity, dose response, cytotoxicity control for RSV inhibitor project, HTS (AID 2410); assay type: functional; conditions: human respiratory syncytial virus
[15] = target: T1, Calpain-2 catalytic subunit (Sus scrofa, UniProt P43367); assay: pig calpain II inhibitor potency, dose response, biochemical, fluorogenic peptide substrate (AID 1420); assay type: functional
T1 sequence (P43367 whole entry): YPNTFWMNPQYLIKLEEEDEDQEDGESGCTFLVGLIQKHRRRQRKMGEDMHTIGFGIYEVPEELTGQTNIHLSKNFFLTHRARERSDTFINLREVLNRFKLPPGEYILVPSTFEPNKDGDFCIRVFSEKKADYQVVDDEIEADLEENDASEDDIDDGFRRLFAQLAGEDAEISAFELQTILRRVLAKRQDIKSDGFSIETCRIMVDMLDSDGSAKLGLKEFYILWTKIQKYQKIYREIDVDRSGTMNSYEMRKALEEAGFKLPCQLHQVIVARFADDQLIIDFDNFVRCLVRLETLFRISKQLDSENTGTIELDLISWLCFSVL

[16] = Shn3 3'UTR reporter inhibitors, dose response, cell-based, Clone20 osteoblasts, firefly luciferase, cherry-picked (AID 624132); assay type: functional;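 also: firefly luciferase luminescence from reporter carrying the Shn3 3'UTR in osteoblasts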
[17] = HepG2 cell cytotoxicity, dose response, cytotoxicity control for Shn3 inhibitor project, CellTiter-Glo, cherry-picked (AID 624134); assay type: functional, cell-based
[18] = control 3'UTR Renilla luciferase suppression, dose response, counter-screen for Shn3 inhibitor project, cell-based, Clone20-Shn3RL, cherry-picked (AID 624133); assay type: functional
[19] = test system: Streptococcus sp. 'group A'; assay: growth inhibition of control SK(-) GAS strain, dose response, counter-screen for streptokinase expression inhibitor project, luminescence, kanamycin, BacTiterGlo, confirmation (AID 1900); assay type: functional, organism-based
[20] = target: T2, Streptokinase A (Streptococcus pyogenes serotype M1, UniProt P10520); assay: S. pyogenes streptokinase expression inhibitors, potency, dose response, plasminogen activation absorbance, OD405 (AID 1914); assay type: functional, Streptococcus pyogenes M1 GAS;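 also: secreted streptokinase activity via plasminogen activation per viability signal from cell pellet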
T2 sequence (P10520 whole entry): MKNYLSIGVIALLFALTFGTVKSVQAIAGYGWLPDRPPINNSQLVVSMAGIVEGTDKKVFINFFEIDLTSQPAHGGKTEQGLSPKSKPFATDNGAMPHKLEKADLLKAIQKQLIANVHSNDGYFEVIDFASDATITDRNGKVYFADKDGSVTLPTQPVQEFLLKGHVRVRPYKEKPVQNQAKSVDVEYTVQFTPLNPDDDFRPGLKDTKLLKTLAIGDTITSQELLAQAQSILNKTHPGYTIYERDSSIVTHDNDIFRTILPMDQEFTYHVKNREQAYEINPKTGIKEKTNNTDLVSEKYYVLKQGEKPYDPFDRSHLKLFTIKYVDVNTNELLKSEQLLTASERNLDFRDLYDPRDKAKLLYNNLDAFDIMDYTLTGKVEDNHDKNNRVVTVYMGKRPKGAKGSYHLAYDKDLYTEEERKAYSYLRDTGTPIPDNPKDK

[21] = test system: Streptococcus; assay: Group A Streptococcus viability loss, dose response, counter-screen for streptokinase expression inhibitor project, luminescence, BacTiterGlo (AID 1915); assay type: functional, organism-based;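 also: potency for reduction of bacterial viability or growth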
[22] = inhibitors of intracellular T. cruzi replication, confirmation, NIH3T3 host cells, beta-gal luminescence (AID 2044); assay type: functional, cell-based;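 also: intracellular parasites grown in NIH/3T3 mouse fibroblasts as host cells; luminescent beta-galactosidase reporter signal from transgenic T. cruzi replicating inside host cells; inhibitors lower the luminescence signal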
[23] = cytotoxicity toward NIH3T3 fibroblasts, dose response, counter-screen, cell-based, ATP luminescence, mouse fibroblasts (AID 2010); assay type: functional;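 also: cells exposed to compound for about 90 hours before reading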

Cc1ccccc1N1CCN(Cc2ccc([N+](=O)[O-])o2)CC1
IC50 [1]: 0.73 µM (active)

O=C(Nc1ccc2c(c1)OCCO2)C(=O)c1c[nH]c2ccccc12
EC50 [2]: 14.2 µM (active) | EC50 [3]: 28.3 µM (active) | EC50 [4]: 24.5 µM (inconclusive) | EC50 [5]: 4.19 µM (inconclusive) | AC50 [6]: 0.718 µM (active)

COc1cc(/C=C2/C(=O)NN(c3ccc(Cl)cc3)C2=O)cc(OC)c1O
EC50 [7]: > 160 µM (inactive) | EC50 [8]: 2.27 µM (inconclusive)

COc1ccc2nc(N3C(=O)C(O)=C(C(=O)c4ccco4)C3c3ccccc3OC)sc2c1 (stereo not drawn)
EC50 [9]: > 120 µM (not active) | EC50 [10]: > 120 µM (not active) | EC50 [11]: 32.4 µM (active)

COc1cc(/C=C2/SC(=S)N(CC(=O)Nc3cccnc3)C2=O)cc(OC)c1OC
EC50 [2]: > 150 µM (not active) | EC50 [3]: > 150 µM (not active) | EC50 [4]: > 150 µM (inconclusive) | EC50 [5]: > 150 µM (not active)

O=C(Nc1ccc(-c2nc3ccccc3o2)cc1)c1cccnc1
EC50 [12]: 23.3 µM (active)

O=C1C(Cl)=C(NCCCN2CCOCC2)C(=O)N1CCc1ccccc1
EC50 [9]: 6.1 µM (active) | EC50 [10]: 15.3 µM (active) | EC50 [11]: 45.1 µM (active)

CCCCNC(=O)Nc1c(C(=O)OC)[nH]c2ccc(C)cc12
EC50 [12]: 37.7 µM (active)

CN1C(=O)/C(=C\C(=O)c2cccs2)c2ccccc21
EC50 [7]: > 150 µM (inconclusive) | EC50 [8]: > 38 µM (not active) | AC50 [13]: 23.1 µM (active)

Cc1cc(=O)oc2c(C)c(OCC(=O)N3CCN(c4cccc(Cl)c4)CC3)ccc12
CC50 [14]: 29.2 µM (active)

Cc1ncsc1CCOC(=O)C1C2CC3CC(C2)CC1C3 (stereo not drawn)
IC50 [15]: 45.8 µM (not active)

CC(=O)O[C@@H]1[C@@H](O)[C@@H](O)[C@H](Oc2c(-c3ccc(O)cc3)oc3c(CC=C(C)C)c(O)cc(O)c3c2=O)O[C@H]1C
CC50 [14]: 16.1 µM (active)

N#Cc1cc(-c2ccccc2)[nH]c1-c1nccc2ccccc12
AC50 [16]: 3.42 µM (active) | AC50 [17]: 48.7 µM (active) | AC50 [18]: 9.62 µM (active)

COCc1nc(-c2ccc(-c3ccc(C)cc3)nc2OC)no1
EC50 [9]: > 120 µM (not active) | EC50 [10]: 76 µM (active) | EC50 [11]: 14.2 µM (active)

COC(=O)COc1cccc(NC(=O)c2ccc(Cl)cc2)c1
IC50 [1]: 2.8 µM (active)

CCCCOC(=O)C1CCCC(C(=O)OCCCC)N1 (stereo not drawn)
IC50 [1]: 16.6 µM (active)

COc1ccc(S(=O)(=O)Oc2cccc(/C=N/NC3=NC(=O)C(CC(=O)O)S3)c2)cc1 (stereo not drawn)
IC50 [15]: > 50 µM (not active)

CCCCCCCCO/C(O)=C1\C(C)=Nc2nnnn2C1c1cccs1 (stereo not drawn)
EC50 [19]: 2.33 µM (active) | EC50 [20]: > 50 µM (not active) | IC50 [15]: 3.59 µM (not active) | EC50 [21]: 7.3 µM (active) | AC50 [6]: 6.65 µM (active)

C/C(=N\NC(=O)c1c(Cl)cnn1C)c1ccc(NC(=O)c2ccc(Br)o2)cc1
EC50 [9]: 6.11 µM (active) | EC50 [10]: 6.56 µM (active) | EC50 [11]: 28.4 µM (active)

CCn1c(=O)[nH]c2ccccc2/c1=N/C(=O)c1ccc(F)cc1
CC50 [14]: 28 µM (active)

Oc1nc(-c2ccccn2)nc(C(F)(F)F)c1Br
EC50 [7]: > 150 µM (inactive) | EC50 [8]: 0.596 µM (active) | EC50 [22]: 1.86 µM (active) | EC50 [23]: 10.9 µM (active)
